Here are results for one compound from patent publication US12599592B2, “Therapeutic small molecules for treatment of pulmonary hypertension” (UNIVERSITY OF PITTSBURGH—OF THE COMMONWEALTH SYSTEM OF …, priority 2020, dated 2026).

One test relates to PAECs. Description: Apoptosis by caspase-3/7 activity in PAECs. Format: cell-based, human. From the text:
Cell culture: Primary human pulmonary artery endothelial cells (PAECs) and human pulmonary artery smooth muscle cells (PASMCs) were purchased from Lonza (302-05A, CC-2581). Of note, the same two male donors were the source of all PAECs in the experiments shown. Two additional male donors were the source for all PASMCs in the experiments shown. Cells from these and any donors were characterized by flow cytometry for consistent expression of cell surface markers and by RNA (RT-qPCR) analysis of endothelial and smooth muscle gene expression. PAECs were cultured in EGM-2 media (CC-3121) along with supplements (CC-4133), and PASMCs were cultured in SmGM-2 culture media (Lonza, CC-3182) at 5% CO2 in a humidified incubator.
Human recombinant galectin-8 (1305-GA-050) was purchased from R&D Systems and was used at a working concentration of 30 nM.
(§1) For hypoxia exposure, cells were plated in 6-well cell culture plates at 1×10^5 cells/well, grown for 24 hr and placed into a normobaric hypoxia chamber (1% O2) for 24 h under specific treatment conditions. Namely, for I-BET and siLGALS8 exposures, cells were either pre-treated with I-BET/vehicle control (VC) or transfected with siLgals8/Scr for 24 h. Then, they were cultured in basal media at 1% 02. After 24 h, caspase activity and mitochondrial superoxide levels were quantified. To detect activation status of pSTAT1/STAT1 by immunoblot, cells were exposed to 8 h of hypoxia.
(§2) In IL-6/sIL-6R+hypoxia experiments, a human recombinant IL-6/IL-6R alpha protein chimera (25 ng/ml, Millipore) was administered at 70-80% confluency for 48 h in complete media along with vehicle control (DMSO, Sigma-41639). BRD2889 (1 uM) vs. vehicle control were added, as indicated, and placed into a hypoxia chamber for 24 h. The hypoxia chamber (modular incubator chamber) was obtained from Billups-Rothenberg Inc. (Del Mar, Calif) and placed in regulated CO2 incubator at 37° C.
Cellular apoptosis: Caspase-3/7 activity was quantified using the Caspase-Glo 3/7 Assay (Promega), according to manufacturer's instructions. Caspase-3/7 activity was normalized to total protein content determined by BCA method (Thermo Fisher Scientific).

Test [1] concerns monocrotaline-exposed pulmonary arterial hypertension rats. Description: Monocrotaline (MCT) pulmonary arterial hypertension rat model. Conditions: BRD2889 5 mg/kg i.p. every 5 days, Days 12-26 post-MCT. The method, then: Following euthanasia, right ventricle/[left ventricle+septum]
Measurement of GST activity: The GST activity from lung tissue and PAECs was assayed using GST assay kit (Cayman, MI, USA) per the manufacturer's instructions.

Test [2] addresses T1, glutathione S-transferase (GST) activity / GSTP1 (Homo sapiens, UniProt P09211).
T1 construct: endogenous in cells; host or cells: primary human PAECs (hypoxia or IL-6/sIL-6R+hypoxia)
Description: GST activity in PAECs. Format: cell-based. The procedure: as §1, §2

Test [3] has as its system ISCU. The test is described as follows: Immunoblot of ISCU and GSTP1 in PAECs. Format: cell-based, human. The procedure:
as §1, §2
(§3) Protein stability assay: The proteasome inhibitor MG132 (M7449, Sigma) was stored at −20° C. at a concentration of 10 mM diluted in dimethyl sulfoxide (DMSO). PAECs were exposed to MG132 ([…]) vs. DMSO vehicle control for 2 hr under hypoxia, prior to harvesting of cellular lysate for immunoblotting.
(§4) Immunoblot and densitometry: Cells were lysed in RIPA buffer (Sigma) along with 1× protease inhibitor cocktail (Sigma). Protein lysate was resolved by gradient 4%-15% SDS-PAGE gels and transferred onto a 0.2 μm PVDF membrane (Bio-Rad). Membranes were blocked in 5% non-fat milk in 1×PBST buffer for one hour at room temperature. Later, they were incubated in the presence of the primary antibody overnight at 4° C. and then appropriate HRP-conjugated secondary antibodies (Life Technologies). The following antibodies were used: human LGALS8 (AF1305, RnD Systems), mouse/rat Lgals8 (ab69631, Abcam), pSTAT1 (ab29045, Abcam) and STAT1 (ab47425, Abcam), GSTP1 (ab153949, Abcam), ISCU (14812-1-AP, Prointech), Glutathione (ab19534, Abcam), HIF2A (NB100-122, Novous), α-Tubulin (CP06, Millipore sigma), and ACTB (sc-47778, Santa Cruz). The immunoreactive bands were visualized with the Chemidoc XRS+system (Bio-Rad) using SuperSignal West Femto chemiluminescent substrates (Thermo Fisher Scientific). The images were later quantified using AlphaEaseFC software (Alpha Innotech).
On the technique in general: In western blotting, separated proteins are transferred to a membrane and probed.

In another test the test system is glutathionylated ISCU. Description: ISCU glutathionylation by immunoprecipitation and immunoblot in PAECs. Format: cell-based, human. The note with it: hypoxic PAECs, BRD2889 1 mM, 24 h. The procedure:
as §3
Immunoblot and densitometry: Cells were lysed in RIPA buffer (Sigma) along with 1× protease inhibitor cocktail (Sigma). Protein lysate was resolved by gradient 4%-15% SDS-PAGE gels and transferred onto a 0.2 μm PVDF membrane (Bio-Rad). Membranes were blocked in 5% non-fat milk in 1×PBST buffer for one hour at room temperature. Later, they were incubated in the presence of the primary antibody overnight at 4° C. and then appropriate HRP-conjugated secondary antibodies (Life Technologies). […] The images were later quantified using AlphaEaseFC software (Alpha Innotech).
Immunoprecipitation: PAECs were transfected with the indicated combinations of siRNAs by Lipofectamine 2000 (Thermo Fisher Scientific) according to the manufacturer's instructions and/or treated with BRD2889 ([…], 24 h). […] After extensive washing, the immunoprecipitated proteins were analyzed by immunoblotting with the indicated antibodies.

The test system of test [4] is ISCU. The test is described as follows: Immunoblot of ISCU and GSTP1 in PASMCs. Format: cell-based, human. The note with it: BRD2889 1 uM. The method, then: as §2
as §4, with “The immunoreactive bands were visualized with the Chemidoc XRS+system (Bio-Rad) using SuperSignal West Femto chemiluminescent substrates (Thermo Fisher Scientific).” left out

Another test concerns GST activity. Description: GST activity in PASMCs. Type of test: cell-based, human. Conditions: IL-6/R + hypoxia, BRD2889 1 uM. The procedure: as §2
A further test concerns PASMCs. Description: BrdU proliferation in PASMCs. Conditions: IL-6/sIL-6R + hypoxia. Format: cell-based, human. The procedure:
as §2
BrdU growth assay: Cell proliferation was assayed relative to day 0 using a BrdU Cell Proliferation Assay Kit (#6813, Cell Signaling) according to the manufacturer's protocol after incubation for 2 h with BrdU.

Test [5] has as its target glutathione S-transferase pi 1 (GSTP1) (Homo sapiens, UniProt P09211). The note with it: literature report; cited from earlier work.
Where [6] appears, read: PAECs, IL-6/sIL-6R + hypoxia, BRD2889 1 uM.

T1 sequence (P09211 2-210 limits assumed): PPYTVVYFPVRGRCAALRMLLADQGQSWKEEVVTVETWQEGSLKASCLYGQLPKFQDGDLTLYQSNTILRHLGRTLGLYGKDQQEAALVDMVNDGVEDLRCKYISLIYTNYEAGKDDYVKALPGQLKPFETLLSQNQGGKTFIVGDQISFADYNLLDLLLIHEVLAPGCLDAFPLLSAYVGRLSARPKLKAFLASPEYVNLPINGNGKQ
glutathione S-transferase pi 1 (GSTP1), sequence (P09211 whole entry, species assumed): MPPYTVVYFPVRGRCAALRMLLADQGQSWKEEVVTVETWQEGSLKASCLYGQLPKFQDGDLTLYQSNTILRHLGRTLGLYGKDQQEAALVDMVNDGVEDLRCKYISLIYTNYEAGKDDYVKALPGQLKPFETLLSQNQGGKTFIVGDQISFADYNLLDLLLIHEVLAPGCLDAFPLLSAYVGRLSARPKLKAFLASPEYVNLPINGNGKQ

For the compound `COc1ccc(C#CC2CCCN(C(=O)/C=C/c3cc(OC)c(OC)c(OC)c3)C2=O)cc1` (stereo not drawn) [BRD2889], the “apoptosis (caspase 3/7)” value in the test on PAECs (PAECs, IL-6/sIL-6R + hypoxia) is listed as “reduced apoptosis”. The “apoptosis (caspase 3/7 activity)” value in the test with PAECs (hypoxic PAECs) is recorded as “reversed the increase”. Moreover, the “hypoxic increase in apoptosis” value with PAECs (hypoxic PAECs with siRNA knockdown of ISCU) is “did not reverse”. Also, in [1], the “Fulton index (RV/LV+S)” value was “reduced”, the RVSP entry is “reduced”, the arteriolar muscularization entry is “reduced” and the “cleaved caspase-3 (CC-3)” value is “decreased”. Besides, in [1], the “endothelial ISCU” value was “increased” and the “lung GST activity” value is reported as “decreased”. Further, the “GSTP1 (GST) activity” value in test [2] (setting [6]) is on record as “reversed the increase”. For the same compound, in [2] (hypoxic PAECs), the GST enzyme activity result is “reduced the hypoxic increase”. The GSTP1 expression entry in the test on ISCU [3] (PAECs, IL-6/R + hypoxia) is on record as “without altering”. Besides, the “ISCU expression (immunoblot)” value with ISCU [3] (setting [6]) is recorded as “reversed the decrease”. In addition, in the test on ISCU [3] (hypoxic PAECs), the GSTP1 expression result was “did not affect” and the ISCU protein levels entry was “reversed hypoxia-dependent reduction”. Further, in the test on glutathionylated ISCU, the “ISCU glutathionylation (α-GSH immunoblot after α-ISCU pulldown)” value is listed as “converse reduction of glutathionylation”. The GSTP1 protein expression entry in the test with ISCU [4] (IL-6/R + hypoxia) is “did not affect”. Further, the ISCU protein result in the test on ISCU [4] (IL-6/sIL-6R + hypoxia) was “failed to rescue”. The GST activity result with GST activity is “did not affect”. Moreover, the proliferation result in the test on PASMCs is recorded as “did not affect”. Moreover, in test [5], the “inhibition of GSTP1” value is recorded as “known to inhibit”.
